According to patent US6451835B1, “Pesticidal fluoroethyl pyrazole derivatives” (Uniroyal Chemical Company, Inc., priority 2001, dated 2002):

What was measured:
Assay type in all cases: in vivo
[1] = tested on: rice delphacids, Sogatodes orizicola; assay: Rice planthopper foliar test (RPH); details: 1000 ppm spray on rice seedlings; adults added 1 day after treatment, counted five days after transferring
Method: (§1) Stock solutions of each of the compounds were prepared at 1000 ppm by dissolving 0.08 gram of each compound to be tested in 8 mL of acetone and adding 72 mL of distilled water plus 3 drops of ethoxylated sorbitan monolaurate, a wetting agent. […] For each example that follows, these stock solutions were used and the specified dilutions made. All the tests discussed below, which involved treatment with compounds of this invention, were always repeated with controls to permit a comparison upon which the percent control was calculated.
One thousand ppm of each stock solution of Example 2 was used for this test. One pot containing approximately 20 rice seedlings was treated with each formulation by spraying with a spray atomizer. One day after treatment, plants were covered with a tubular cage and 20 adult rice delphacids, Sogatodes orizicola, were transferred into each cage. Five days after transferring, counts were made of the surviving planthoppers in each pot and percent control was estimated.

Tefranychus urticae Koch = assay: Mite adulticide test (MI); details: 1000 ppm spray to run off on cowpea leaves; adult mites added 1 day after treatment, read five days later
Method: (§2) Stock solutions of each of the compounds were prepared at 1000 ppm by dissolving 0.08 gram of each compound to be tested in 8 mL of acetone and adding 72 mL of distilled water plus 3 drops of ethoxylated sorbitan monolaurate, a wetting agent. […] For each example that follows, these stock solutions were used and the specified dilutions made. All the tests discussed below, which involved treatment with compounds of this invention, were always repeated with controls to permit a comparison upon which the percent control was calculated. One day before treatment of cowpea primary leaves with the test solutions, a “FIG. 8” configuration of tree tanglefoot was applied to each of two cowpea primary leaves, one from each of two plants in a pot. In each “Figure”, the circle nearer the stem was designated for the mite ovicide test and the circle farther from the stem was designated for the mite adulticide test. Groups of adult mites (Tefranychus urticae Koch) were transferred into ovicide circles one day before treatment and the females were allowed to deposit eggs until one hour before treatment, at which point all the adults were removed. The plants were then sprayed to run off with each 1000 ppm stock solution of Example 2. One day following treatment of the plants with the test solution, groups of approximately 25 adult mites were transferred into the adulticide rings. Five days later, these rings were examined for live mites remaining on the leaves. The percent control was estimated based on the number of mites surviving on the control plants. Nine days following treatment the ovicide rings were examined for unhatched eggs and living immature mites. The percent control was estimated based on the number of unhatched eggs.

[2] = tested on: Tefranychus urticae Koch eggs; assay: Mite ovicide test (MIOV); details: 1000 ppm spray to run off on cowpea leaves; unhatched eggs read nine days following treatment
Method: as §2

[3] = tested on: Helicoverpa virescens larva; assay: Tobacco budworm test (TB); details: 0.2 mL of 1000 ppm stock solution on diet cell surface; second instar larva; after 14 days; corrected by Abbott's formula
Method: as §1
For each compound tested, 0.2 mL of each stock solution of Example 2 was pipetted onto the surfaces of each of five diet cells, allowed to spread over the surfaces, and air dried for two hours. Then, a second instar Helicoverpa virescens larva was introduced into each cell. After 14 days, the number of living larvae was determined for each treatment and percent control, corrected by Abbott's formula (J. Econ. Entomology (1925, 265-267), was calculated. The results of the testing of tobacco budworms (TB) are presented in Table 2.

[4] = tested on: root knot nematode (Meloidogmne incognita); assay: Nematode test (NE); details: soil drench, soil concentration of 50 ppm; tomato seedling roots evaluated for galls nineteen days after planting
Method: Stock solutions of each of the compounds were prepared at 1000 ppm by dissolving 0.08 gram of each compound to be tested in 8 mL of acetone and adding 72 mL of distilled water plus 3 drops of ethoxylated sorbitan monolaurate, a wetting agent. […] For each example that follows, these stock solutions were used and the specified dilutions made. All the tests discussed below, which involved treatment with compounds of this invention, were always repeated with controls to permit a comparison upon which the percent control was calculated. One thousand ppm of each stock solution of Example 2 was used for this test. For each test solution, 25 mL was drenched onto separate 500 gram samples of soil infested with root knot nematode (Meloidogmne incognita) eggs in a pot, for a soil concentration of 50 ppm. One day after treatment, two tomato seedlings were planted in each pot. Nineteen days after planting, the roots were evaluated for the presence of knots or galls, and the percent control was estimated on the infestation levels in check plants.

[5] = tested on: Southern Corn Rootworm (Diabrotica undecimpuncatat); assay: Southern corn rootworm test (CR); details: 100 ppm test solution, corn seedlings on filter paper; second instar larvae; after five days; corrected by Abbott's formula
Method: Stock solutions of each of the compounds were prepared at 1000 ppm by dissolving 0.08 gram of each compound to be tested in 8 mL of acetone and adding 72 mL of distilled water plus 3 drops of ethoxylated sorbitan monolaurate, a wetting agent. […] For each example that follows, these stock solutions were used and the specified dilutions made. All the tests discussed below, which involved treatment with compounds of this invention, were always repeated with controls to permit a comparison upon which the percent control was calculated. One thousand ppm of each stock solution of Example 2 was diluted to 100 ppm (the “test solution”). For each compound, 2.5 mL of each test solution was pipetted onto a filter paper (Whatman #3) at the bottom of a 100 mm petri dish. Two corn seedlings were soaked in the 100 ppm solution for one hour and transferred to the petri dish containing the same test solution. After 24 hours, each dish was loaded with 5 second instar larvae of Southern Corn Rootworm (Diabrotica undecimpuncatat). After five days, the number of live larvae was noted and the percent control, corrected by Abbott's formula, was calculated.

Compound | Percent Control RPH [1] | Percent Control MI (Tefranychus urticae Koch) | Percent Control MIOV [2] | Percent Control TB [3] | Percent Control NE [4] | Percent Control CR [5]
FCCC1(c2ccccc2)C=NNC1 (stereo not drawn) [Compound 1, 4-(2-fluoroethyl)-4-phenyl-1H-pyrazole] | 20% | 0% | 100% | 20% | 50% | 0%
FCCn1cc(-c2ccc(Cl)cc2)cn1 [Compound 2] | 0% | 100% | 100% | 40% | 100% | 100%
FCCn1cc(-c2ccc(C(F)(F)F)cc2)cn1 [Compound 3] | 0% | 0% | 0% | 100% | 0% | 100%
FCCn1cc(-c2cccc(Br)c2)cn1 [Compound 4] | 0% | 100% | 100% | 7% | 100% | 0%
FCCn1cc(-c2ccc(Cl)c(Cl)c2)cn1 [Compound 5] | 0% | 100% | 100% | 0% | 60% | 63%
FCCn1cc(-c2cccc(C(F)(F)F)c2)cn1 [Compound 6] | 85% | 0% | 100% | 0% | 100% | 100%
FCCn1cc(-c2ccc(OC(F)(F)F)cc2)cn1 [Compound 7] | 85% | 0% | 100% | 0% | 100% | 100%
